≈ marks a conversion by molar mass, not a printed value.
Assays:
[1] = system: Metastatic B16F10 murine melanoma cells; assay: Viability assay (MTS), B16F10 cells; type: cell-based; conditions: Mus musculus, B16-F10, B16F10, 24 h treatment, read-out: IC50, decrease of proliferation/viability
Experimental: Metastatic B16F10 murine melanoma cells were cultured in RPMI 1640 (Roswell Park Memorial Institute) supplemented with 10% FBS, 2 mM glutamine, and antibiotics (100 U/mL penicillin and 100 μg/mL streptomycin) at 37° C. in 5% CO2.
The cultured metastatic B16F10 murine melanoma cells and cultured human embryonic kidney cells (HEK293T) were seeded in 96-well plates at a density of 1×10^4 cells per well and incubated for 24 h in culture medium. […] 2% Sodium dodecyl sulfate (SDS) and a standard cell medium were used as positive and negative cell controls, respectively. Cell proliferation was evaluated by the MTS® assay, according to the manufacturer's (Promega, Madison, WI) instructions. Absorbance was evaluated at 490 nm removing any background absorbance (620 nm) in plate reader (Tecan Infinite 200 pro NanoQuant).

[2] = system: uterine cervical cancer cell line HeLa; assay: Viability assay (CellTiter 96 MTS), HeLa cells; type: cell-based, human
Experimental: To further determine the effect of the formulation on cell viability, the calorimetric method of tetrazolium salt reduction (CellTiter 96®) was used to establish a linear relationship between the number of metabolically active cells and the absorption intensity. […] 2500 HeLa cells were seeded per well, in a 96-well microplate, and the cells were incubated with 100 μL of Dulbecco's Modified Eagle Medium (DMEM) culture medium enriched with 10% fetal bovine serum (FBS), at 37° C. and 5% CO2. The day after seeding, the 100 μL of medium was removed, and it was replaced by 80 μL of clean culture medium. Then 20 μL of a treatment was applied, and the cells were incubated under the same temperature and CO2 conditions. 24 hours after the treatment was applied, the treatment was removed, the cells were subsequently washed three (3) times with phosphate-buffered saline (PBS), and 80 μL of medium without indicator was added to the cells and 20 μL of MTS. The cells were incubated for 1 hour, and the absorbance was measured at a wavelength of 490 nm in a microplate reader. […] Each assay was performed in triplicate. In addition, within each assay the same treatment was applied to a minimum of 5 wells.

B16F10 cells = assay: Matrigel invasion assay; type: cell-based, murine; conditions: normalized to untreated control
Experimental: B16F10 cells (5×10^4) were seeded, allowed to grow for 24 h, and treated with CUR-NEM, CUR and controls. Then, serum-starved cells (2×10^5) were seeded (24 h) over 8 μm-porous inserts covered with Matrigel (Matrigel Invasion Chamber 8.0 lm; BD Biosciences Bedford, MA, USA). […] The membranes were mounted in Mowiol, and observed under a light microscope. At least 10 fields were evaluated (at 40× magnification) to determine the number of cells per field. The values obtained were normalized to those obtained for cells without treatment (control). Averages of values from three independent experiments are shown (mean±SEM). Statistically significant differences compared with the corresponding control group are indicated (**P<0.001; ****<0.0001). Metastasis is a complex process that is known to require migration and invasion of malignant cells.

[3] = Persistence of curcumin fluorescence at the treatment site after tumor excision; type: in vivo, mice; conditions: post-surgery
B16F10 (murine melanoma) = conditions: B16F10, 48-hour exposure; read-out: CI50 (the source's name); cited from earlier work
K562 (erythroleukemia) = conditions: K562, 48-hour exposure; read-out: CI50 (the source's name); cited from earlier work
[4] = system: Molt4 (human acute lymphoblastic leukemia); conditions: Molt4, 48-hour exposure; read-out: CI50 (the source's name); cited from earlier work
[5] = system: U937 (monoblastic leukemia); conditions: U937, 48-hour exposure; read-out: CI50 (the source's name); cited from earlier work
[6] = system: HL-60 (promyelocytic leukemia); conditions: HL-60, 48-hour exposure; read-out: CI50 (the source's name); cited from earlier work
HeLa = conditions: read-out: CI50 (the source's name); cited from earlier work

IC50 [1]: 34.8 ± 7.5 µg/mL (≈ 94.5 µM)
IC50 ([2]; Homo sapiens, 24-hour exposure, MTS, read-out: CI50 (the source's name)): 61.8 ± 18.1 µM
Curcumin fluorescence over basal levels, four (4) days after treatment [3]: not detectable
SMILES: COc1cc(C=CC(=O)CC(=O)C=Cc2ccc(O)c(OC)c2)ccc1O [curcumin, 1,7-bis(4-hydroxy-3methoxyphenyl)-1,6-heptadien-3,5-dione]
Concentration of maximum effectiveness (cytotoxicity) ([2]; after 24-hour exposure): 50 µM
Reduction in invasiveness (B16F10 cells): 10 fold
IC50 (B16F10 (murine melanoma)): ~3.5 µM
IC50 (K562 (erythroleukemia)): ~38.7 µM
IC50 [4]: ~14.4 µM
IC50 [5]: ~30.1 µM
IC50 [6]: ~15.7 µM
IC50 (HeLa): 13.3 µM

Reference: US11813355B2, “Curcumin-loaded nanoemulsions, method of manufacture, and method of preventive treatment using the same” (UNIVERSIDAD DE CHILE, priority 2016, dated 2023)
